Laboratory results from patent US6706663B2, “Herbicidal 3-heterocyclic substituted benzisothiazole and benzisoxazole compounds” (Wyeth, priority 2000, dated 2004).

Experiments:
[1] = test system: GALAP (Galium aparine); assay: Postemergence herbicidal evaluation; assay type: in vivo; conditions: for GALAP herbicidal rating: postemergence
Procedure, shortened: (§1)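 Seedlings grown for about two weeks were sprayed postemergence and then kept under standard greenhouse care. Injury was rated visually 4–5 weeks after treatment on a 0–9 scale against untreated controls, and ratings from repeat tests were averaged.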

[2] = test system: IPOHE (Ipomoea hederacea); assay: Preemergence herbicidal evaluation; assay type: in vivo, (L.) Jacq.; conditions: rated 4-5 weeks after treatment
[3] = test system: AMBEL (Ambrosia artemisifolia); assay: Postemergence herbicidal evaluation; assay type: in vivo, L.; conditions: for AMBEL herbicidal rating: postemergence
Procedure, shortened: as §1

[4] = test system: CASOB (Cassia obtusifolia); assay: Postemergence herbicidal evaluation; assay type: in vivo, L.; conditions: for CASOB herbicidal rating: postemergence
Procedure, shortened: as §1

[5] = test system: CHEAL (Chenopodium album); assay: Postemergence herbicidal evaluation; assay type: in vivo, L.; conditions: for CHEAL herbicidal rating: postemergence
Procedure, shortened: as §1

[6] = test system: GLXMA (Soybean); assay: Preemergence herbicidal evaluation; assay type: in vivo, Glycine max, (L.) Merr.; conditions: rated 4-5 weeks after treatment
[7] = test system: GLXMAW (Soybean, Williams); assay: Preemergence herbicidal evaluation; assay type: in vivo, Glycine max, (L.) Merr. cv Williams; conditions: rated 4-5 weeks after treatment
[8] = test system: ABUTH (Abutilon theophrasti); assay: Postemergence herbicidal evaluation; assay type: in vivo, Medic.; conditions: for ABUTH herbicidal rating: postemergence
Procedure, shortened: as §1

[9] = test system: SAGPY (Sagittaria pygmaea); assay: Flooded paddy, preemergence weed control; assay type: in vivo, L.; conditions: rated 3-4 weeks after treatment, 0-9 rating scale
Procedure, shortened: (§2)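 Greenhouse paddy test, preemergence. Seeds planted in the top 0.5 cm of silt loam soil, which remained flooded at 1.5–3 cm depth. Scored 0-9 by visual comparison with control.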

[10] = test system: ORYSAT (Rice, Tebonnet); assay: Flooded paddy, post-transplant rice tolerance; assay type: in vivo, Oryza sativa, (L.) Tebonnet; conditions: flooded paddy, post-transplant rice, rated 3-4 weeks after treatment, 0-9 rating scale
Procedure, shortened: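 Steps: transplant two ten-day-old seedlings into silt loam; flood to 1.5-3 cm above soil; apply herbicide post-transplant; maintain water on greenhouse benches; rate stand, vigor, malformation, size and chlorosis on a 0-9 visual scale versus control.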

[11] = test system: ZEAMX (Corn, Field); assay: Preemergence herbicidal evaluation; assay type: in vivo, Zea mays, L.; conditions: rated 4-5 weeks after treatment
[12] = test system: CYPIR (Cyperus iria); assay: Flooded paddy, preemergence weed control; assay type: in vivo; conditions: rated 3-4 weeks after treatment, 0-9 rating scale
Procedure, shortened: as §2

[13] = preemergence, rate 0.0620 kg/ha
[14] = preemergence, rate 0.1250 kg/ha
[15] = preemergence, rate 0.2500 kg/ha

Cn1c(C(F)(F)F)cc(=O)n(-c2ccc3snc(C4OCCO4)c3c2)c1=O [Compound 45, 3-[3-(1,3-dioxolan-2-yl)-1,2-benzisothiazol-5-yl]-1-methyl-6-(trifluoromethyl)uracil] was tested, and the “Postemergence herbicidal rating, GALAP” value ([1]; rate 0.0320 kg/ha) was 8.5, the “Postemergence herbicidal rating, GALAP” value ([1]; rate 0.0620 kg/ha) was 9.0 and the “Preemergence herbicidal rating IPOHE” value ([2]; Rate 0.0620 kg/ha) was 9.0. For the same molecule, the “Preemergence herbicidal rating IPOHE” value ([2]; Rate 0.1250 kg/ha) was 9.0, the “Preemergence herbicidal rating IPOHE” value ([2]; Rate 0.2500 kg/ha) was 9.0 and the “Postemergence herbicidal rating, AMBEL” value ([3]; rate 0.0320 kg/ha) was 9.0. The “Postemergence herbicidal rating, AMBEL” value ([3]; rate 0.0620 kg/ha) was 9.0, the “Postemergence herbicidal rating, CASOB” value ([4]; rate 0.0320 kg/ha) was 5.0 and the “Postemergence herbicidal rating, CASOB” value ([4]; rate 0.0620 kg/ha) was 9.0. The “Postemergence herbicidal rating, CHEAL” value ([5]; rate 0.0320 kg/ha) was 8.5, the “Postemergence herbicidal rating, CHEAL” value ([5]; rate 0.0620 kg/ha) was 9.0 and the “Preemergence herbicidal rating GLXMA” value ([6]; Rate 0.0620 kg/ha) was 9.0. For the same molecule, the “Preemergence herbicidal rating GLXMA” value ([6]; Rate 0.1250 kg/ha) was 9.0, the “Preemergence herbicidal rating GLXMA” value ([6]; Rate 0.2500 kg/ha) was 9.0 and the “Preemergence herbicidal rating GLXMAW” value ([7]; Rate 0.0620 kg/ha) was 9.0. The “Preemergence herbicidal rating GLXMAW” value ([7]; Rate 0.1250 kg/ha) was 9.0, the “Preemergence herbicidal rating GLXMAW” value ([7]; Rate 0.2500 kg/ha) was 9.0 and the “Postemergence herbicidal rating, ABUTH” value ([8]; rate 0.0320 kg/ha) was 9.0. The “Postemergence herbicidal rating, ABUTH” value ([8]; rate 0.0620 kg/ha) was 9.0, the “herbicidal rating, SAGPY” value ([9]; rate 0.0080 kg/ha) was 7.0 and the “herbicidal rating, SAGPY” value ([9]; rate 0.0320 kg/ha) was 8.0. For the same molecule, the “herbicidal rating, SAGPY” value ([9]; rate 0.1250 kg/ha) was 9.0, the “herbicidal rating, ORYSAT (rice tolerance)” value (from here on “herbicidal rating, ORYSAT”) ([10]; rate 0.0080 kg/ha) was 8.5 and the “herbicidal rating, ORYSAT” value ([10]; rate 0.0320 kg/ha) was 9.0. The “herbicidal rating, ORYSAT” value ([10]; rate 0.1250 kg/ha) was 9.0, the “Preemergence herbicidal rating ZEAMX” value ([11]; Rate 0.0620 kg/ha) was 8.8 and the “Preemergence herbicidal rating ZEAMX” value ([11]; Rate 0.1250 kg/ha) was 9.0. The “Preemergence herbicidal rating ZEAMX” value ([11]; Rate 0.2500 kg/ha) was 8.7, the “herbicidal rating, CYPIR” value ([12]; rate 0.0080 kg/ha) was 9.0 and the “herbicidal rating, CYPIR” value ([12]; rate 0.0320 kg/ha) was 9.0. For the same molecule, the “herbicidal rating, CYPIR” value ([12]; rate 0.1250 kg/ha) was 9.0.
Work on CSCC1COC(c2nsc3ccc(-n4c(=O)cc(C(F)(F)F)n(C)c4=O)cc23)O1 (centres unmarked) [Compound 84, 1-methyl-3-[3-[4-[(methylthio)methyl]-1,3-dioxolan-2-yl]-1,2-benzisothiazol-5-yl]-6-(trifluoromethyl)uracil] yielded a GALAP herbicidal rating ([1]; rate 0.0320 kg/ha) of 6.5, a GALAP herbicidal rating ([1]; rate 0.0620 kg/ha) of 7.5 and a GALAP herbicidal rating ([1]; rate 0.1250 kg/ha) of 9.0. For the same molecule, the “Preemergence herbicidal rating IPOHE” value [2, 13] was 6.3, the “Preemergence herbicidal rating IPOHE” value [2, 14] was 8.3 and the “Preemergence herbicidal rating IPOHE” value [2, 15] was 9.0. For the same molecule, the AMBEL herbicidal rating ([3]; rate 0.0320 kg/ha) was 7.5, the AMBEL herbicidal rating ([3]; rate 0.0620 kg/ha) was 9.0 and the AMBEL herbicidal rating ([3]; rate 0.1250 kg/ha) was 9.0. It also gave a CASOB herbicidal rating ([4]; rate 0.0320 kg/ha) of 7.0, a CASOB herbicidal rating ([4]; rate 0.0620 kg/ha) of 7.0 and a CASOB herbicidal rating ([4]; rate 0.1250 kg/ha) of 9.0. For the same molecule, the CHEAL herbicidal rating ([5]; rate 0.0320 kg/ha) was 9.0, the CHEAL herbicidal rating ([5]; rate 0.0620 kg/ha) was 9.0 and the CHEAL herbicidal rating ([5]; rate 0.1250 kg/ha) was 9.0. The “Preemergence herbicidal rating GLXMA” value [6, 13] was 9.0, the “Preemergence herbicidal rating GLXMA” value [6, 14] was 9.0 and the “Preemergence herbicidal rating GLXMA” value [6, 15] was 9.0. For the same molecule, the “Preemergence herbicidal rating GLXMAW” value [7, 13] was 7.0, the “Preemergence herbicidal rating GLXMAW” value [7, 14] was 9.0 and the “Preemergence herbicidal rating GLXMAW” value [7, 15] was 9.0. It also gave an ABUTH herbicidal rating ([8]; rate 0.0320 kg/ha) of 9.0, an ABUTH herbicidal rating ([8]; rate 0.0620 kg/ha) of 9.0 and an ABUTH herbicidal rating ([8]; rate 0.1250 kg/ha) of 9.0. The “herbicidal rating, SAGPY” value ([9]; rate 0.0080 kg/ha) was 0.0, the “herbicidal rating, SAGPY” value ([9]; rate 0.0320 kg/ha) was 0.0 and the “herbicidal rating, SAGPY” value ([9]; rate 0.1250 kg/ha) was 4.0. For the same molecule, the “herbicidal rating, ORYSAT” value ([10]; rate 0.0080 kg/ha) was 0.0, the “herbicidal rating, ORYSAT” value ([10]; rate 0.0320 kg/ha) was 1.5 and the “herbicidal rating, ORYSAT” value ([10]; rate 0.1250 kg/ha) was 5.5. The “Preemergence herbicidal rating ZEAMX” value [11, 13] was 3.7, the “Preemergence herbicidal rating ZEAMX” value [11, 14] was 6.3 and the “Preemergence herbicidal rating ZEAMX” value [11, 15] was 8.0. For the same molecule, the “herbicidal rating, CYPIR” value ([12]; rate 0.0080 kg/ha) was 0.0, the “herbicidal rating, CYPIR” value ([12]; rate 0.0320 kg/ha) was 1.5 and the “herbicidal rating, CYPIR” value ([12]; rate 0.1250 kg/ha) was 6.0.
In the case of Cn1c(C(F)(F)F)cc(=O)n(-c2ccc3snc(C4OCC(C[S+](C)[O-])O4)c3c2)c1=O (centres unmarked) [Compound 88, 1-methyl-3-[3-[4-[(methylsulfinyl)methyl]-1,3-dioxolan-2-yl]-1,2-benzisothiazol-5-yl]-6-(trifluoromethyl)uracil], the GALAP herbicidal rating ([1]; rate 0.0320 kg/ha) is reported as 9.0, the GALAP herbicidal rating ([1]; rate 0.0620 kg/ha) is reported as 9.0 and the “Preemergence herbicidal rating IPOHE” value [2, 13] is reported as 6.0. The “Preemergence herbicidal rating IPOHE” value [2, 14] was 7.5, the “Preemergence herbicidal rating IPOHE” value [2, 15] was 9.0 and the AMBEL herbicidal rating ([3]; rate 0.0320 kg/ha) was 9.0. It also gave an AMBEL herbicidal rating ([3]; rate 0.0620 kg/ha) of 9.0, a CASOB herbicidal rating ([4]; rate 0.0320 kg/ha) of 5.0 and a CASOB herbicidal rating ([4]; rate 0.0620 kg/ha) of 9.0. The CHEAL herbicidal rating ([5]; rate 0.0320 kg/ha) was 9.0, the CHEAL herbicidal rating ([5]; rate 0.0620 kg/ha) was 9.0 and the “Preemergence herbicidal rating GLXMA” value [6, 13] was 9.0. The “Preemergence herbicidal rating GLXMA” value [6, 14] was 9.0, the “Preemergence herbicidal rating GLXMA” value [6, 15] was 9.0 and the “Preemergence herbicidal rating GLXMAW” value [7, 13] was 9.0. The “Preemergence herbicidal rating GLXMAW” value [7, 14] was 9.0, the “Preemergence herbicidal rating GLXMAW” value [7, 15] was 9.0 and the ABUTH herbicidal rating ([8]; rate 0.0320 kg/ha) was 9.0. The ABUTH herbicidal rating ([8]; rate 0.0620 kg/ha) was 9.0, the SAGPY herbicidal rating ([9]; rate 0.0320 kg/ha) was 0.0 and the SAGPY herbicidal rating ([9]; rate 0.1250 kg/ha) was 0.0. The “ORYSAT herbicidal rating (transplanted rice tolerance)” value ([10]; rate 0.0320 kg/ha) was 0.0, the “ORYSAT herbicidal rating (transplanted rice tolerance)” value ([10]; rate 0.1250 kg/ha) was 5.0 and the “Preemergence herbicidal rating ZEAMX” value [11, 13] was 3.5. The “Preemergence herbicidal rating ZEAMX” value [11, 14] was 6.0, the “Preemergence herbicidal rating ZEAMX” value [11, 15] was 7.0 and the CYPIR herbicidal rating ([12]; rate 0.0320 kg/ha) was 0.0. The CYPIR herbicidal rating ([12]; rate 0.1250 kg/ha) was 9.0.
